Measured values from PMC8799717, “Pharmacological targeting PIKfyve and tubulin as an effective treatment strategy for double-hit lymphoma” (Cell Death Discovery, 2022).

Assays:
Experiment in all cases: biochemical
Set-up in all cases: KINOMEscan active-site-directed competition binding panel, 468 kinases, percent of DMSO control at 1 uM
Conditions in all cases: KINOMEscan binding, percent of DMSO control; read-out: Ctrl%
DMPK2 = molecular target: T1, DMPK2 (Homo sapiens, UniProt Q6DT37)
T1 construct: gene CDC42BPG
T1 sequence (Q6DT37 whole entry): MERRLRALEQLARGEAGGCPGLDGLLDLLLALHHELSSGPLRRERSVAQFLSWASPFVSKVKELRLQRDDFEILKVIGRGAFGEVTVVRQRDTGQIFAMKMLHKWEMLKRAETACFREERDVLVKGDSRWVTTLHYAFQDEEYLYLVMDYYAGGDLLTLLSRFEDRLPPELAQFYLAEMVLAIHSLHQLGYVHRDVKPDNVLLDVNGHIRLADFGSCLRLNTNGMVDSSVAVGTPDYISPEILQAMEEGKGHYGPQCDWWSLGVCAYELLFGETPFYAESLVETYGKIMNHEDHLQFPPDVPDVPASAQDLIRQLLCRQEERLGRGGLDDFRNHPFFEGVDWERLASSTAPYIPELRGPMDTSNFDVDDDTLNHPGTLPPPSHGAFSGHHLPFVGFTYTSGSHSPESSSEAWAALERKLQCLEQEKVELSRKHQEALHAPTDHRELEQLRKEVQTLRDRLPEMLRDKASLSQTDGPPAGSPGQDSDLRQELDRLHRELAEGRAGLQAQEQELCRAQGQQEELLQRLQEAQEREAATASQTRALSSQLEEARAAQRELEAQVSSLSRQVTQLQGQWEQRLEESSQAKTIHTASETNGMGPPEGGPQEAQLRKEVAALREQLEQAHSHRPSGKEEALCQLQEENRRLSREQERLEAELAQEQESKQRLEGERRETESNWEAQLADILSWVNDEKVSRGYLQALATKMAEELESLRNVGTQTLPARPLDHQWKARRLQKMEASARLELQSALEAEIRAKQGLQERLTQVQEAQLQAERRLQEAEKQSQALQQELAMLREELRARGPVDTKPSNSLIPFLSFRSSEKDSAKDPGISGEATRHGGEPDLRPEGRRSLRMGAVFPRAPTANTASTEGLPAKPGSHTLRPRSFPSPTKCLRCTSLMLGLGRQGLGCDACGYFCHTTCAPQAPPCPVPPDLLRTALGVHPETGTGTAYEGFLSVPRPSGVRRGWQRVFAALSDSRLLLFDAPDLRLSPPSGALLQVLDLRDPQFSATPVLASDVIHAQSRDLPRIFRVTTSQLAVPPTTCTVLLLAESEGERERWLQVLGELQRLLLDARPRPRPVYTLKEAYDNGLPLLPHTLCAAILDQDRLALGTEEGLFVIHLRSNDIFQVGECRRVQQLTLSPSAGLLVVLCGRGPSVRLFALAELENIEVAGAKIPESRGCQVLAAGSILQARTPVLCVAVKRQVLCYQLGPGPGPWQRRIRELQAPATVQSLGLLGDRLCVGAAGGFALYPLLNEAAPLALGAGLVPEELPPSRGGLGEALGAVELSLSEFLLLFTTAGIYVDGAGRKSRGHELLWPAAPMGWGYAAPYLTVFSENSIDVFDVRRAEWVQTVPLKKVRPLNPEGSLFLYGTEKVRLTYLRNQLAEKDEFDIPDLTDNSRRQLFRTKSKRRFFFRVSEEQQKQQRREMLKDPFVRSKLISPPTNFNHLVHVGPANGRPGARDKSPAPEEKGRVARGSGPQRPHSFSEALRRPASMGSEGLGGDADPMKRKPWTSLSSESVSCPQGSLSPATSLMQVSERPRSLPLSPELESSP

INSRR = INSRR (Homo sapiens, UniProt P14616)
MINK = molecular target: T2, MINK (Homo sapiens, UniProt Q8N4C8)
T2 construct: gene MINK1

[1] = molecular target: T3, JAK3(JH1domain-catalytic) (Homo sapiens, UniProt P52333)
T3 construct: JH1domain-catalytic

AXL = AXL (Homo sapiens, UniProt P30530)
IKK-epsilon = molecular target: T4, IKK-epsilon (Homo sapiens, UniProt Q14164)
T4 construct: gene IKBKE
T4 sequence (Q14164 whole entry): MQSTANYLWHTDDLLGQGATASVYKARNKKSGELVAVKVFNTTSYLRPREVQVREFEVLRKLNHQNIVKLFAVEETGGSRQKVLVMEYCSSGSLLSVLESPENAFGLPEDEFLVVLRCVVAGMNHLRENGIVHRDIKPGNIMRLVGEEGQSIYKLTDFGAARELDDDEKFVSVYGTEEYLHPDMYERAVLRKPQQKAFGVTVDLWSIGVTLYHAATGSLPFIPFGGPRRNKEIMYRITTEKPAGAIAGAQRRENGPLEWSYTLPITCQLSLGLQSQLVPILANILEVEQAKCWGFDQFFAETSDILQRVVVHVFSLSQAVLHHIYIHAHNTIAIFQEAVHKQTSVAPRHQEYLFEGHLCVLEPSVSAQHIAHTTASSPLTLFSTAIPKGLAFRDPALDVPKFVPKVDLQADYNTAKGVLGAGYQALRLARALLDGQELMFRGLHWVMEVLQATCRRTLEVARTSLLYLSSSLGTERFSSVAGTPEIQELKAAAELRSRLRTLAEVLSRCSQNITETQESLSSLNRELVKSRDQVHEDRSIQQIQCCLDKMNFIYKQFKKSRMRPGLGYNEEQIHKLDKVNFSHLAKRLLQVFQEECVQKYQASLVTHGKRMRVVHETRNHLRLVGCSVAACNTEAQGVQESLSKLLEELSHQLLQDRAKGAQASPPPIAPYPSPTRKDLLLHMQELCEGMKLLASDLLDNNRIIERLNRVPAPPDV

FGR = FGR (Homo sapiens, UniProt P09769)
PIK3CA(E542K) = PIK3CA(E542K) (Homo sapiens, UniProt P42336, E542K)
[2] = molecular target: T5, ABL1(F317I)-phosphorylated (Homo sapiens, UniProt P00519, F317I)
T5 construct: phosphorylated

ADCK3 = molecular target: T6, ADCK3 (Homo sapiens, UniProt Q8NI60)
T6 construct: gene COQ8A

DCAMKL3 = molecular target: T7, DCAMKL3 (Homo sapiens, UniProt Q9C098)
T7 construct: gene DCLK3
T7 sequence (Q9C098 whole entry): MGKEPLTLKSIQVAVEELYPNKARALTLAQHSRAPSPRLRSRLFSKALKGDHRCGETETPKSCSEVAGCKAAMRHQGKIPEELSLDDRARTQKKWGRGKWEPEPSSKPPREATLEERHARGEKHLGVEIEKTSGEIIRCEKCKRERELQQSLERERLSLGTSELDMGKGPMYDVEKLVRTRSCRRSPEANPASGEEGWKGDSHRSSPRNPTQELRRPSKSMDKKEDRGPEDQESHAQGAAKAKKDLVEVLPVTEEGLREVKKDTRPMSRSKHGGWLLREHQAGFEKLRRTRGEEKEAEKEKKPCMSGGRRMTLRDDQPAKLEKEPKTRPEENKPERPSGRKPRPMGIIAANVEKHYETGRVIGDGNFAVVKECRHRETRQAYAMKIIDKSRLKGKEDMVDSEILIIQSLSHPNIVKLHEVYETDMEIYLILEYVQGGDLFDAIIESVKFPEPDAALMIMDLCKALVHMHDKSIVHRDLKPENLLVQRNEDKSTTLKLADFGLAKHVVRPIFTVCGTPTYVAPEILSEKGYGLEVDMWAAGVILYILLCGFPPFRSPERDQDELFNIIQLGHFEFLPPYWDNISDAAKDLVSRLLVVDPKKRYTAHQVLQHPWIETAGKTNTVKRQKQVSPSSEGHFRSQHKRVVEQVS

BLK = BLK (Homo sapiens, UniProt P51451)
BLK, sequence (P51451 whole entry): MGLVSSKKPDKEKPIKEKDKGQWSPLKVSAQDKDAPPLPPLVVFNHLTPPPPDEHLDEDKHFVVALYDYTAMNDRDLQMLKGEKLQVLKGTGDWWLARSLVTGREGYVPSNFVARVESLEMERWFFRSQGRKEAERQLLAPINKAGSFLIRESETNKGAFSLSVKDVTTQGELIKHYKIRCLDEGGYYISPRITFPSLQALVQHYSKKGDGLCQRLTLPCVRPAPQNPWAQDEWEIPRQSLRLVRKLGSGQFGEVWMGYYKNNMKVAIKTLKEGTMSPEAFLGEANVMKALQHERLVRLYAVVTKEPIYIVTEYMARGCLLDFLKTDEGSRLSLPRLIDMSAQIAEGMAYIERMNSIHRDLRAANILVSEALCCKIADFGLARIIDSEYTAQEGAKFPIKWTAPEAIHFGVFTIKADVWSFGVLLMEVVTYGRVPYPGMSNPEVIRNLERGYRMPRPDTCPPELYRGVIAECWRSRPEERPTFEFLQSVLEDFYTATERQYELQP

CSNK1A1 = CSNK1A1 (Homo sapiens, UniProt P48729)
CSNK1A1, sequence (P48729 whole entry): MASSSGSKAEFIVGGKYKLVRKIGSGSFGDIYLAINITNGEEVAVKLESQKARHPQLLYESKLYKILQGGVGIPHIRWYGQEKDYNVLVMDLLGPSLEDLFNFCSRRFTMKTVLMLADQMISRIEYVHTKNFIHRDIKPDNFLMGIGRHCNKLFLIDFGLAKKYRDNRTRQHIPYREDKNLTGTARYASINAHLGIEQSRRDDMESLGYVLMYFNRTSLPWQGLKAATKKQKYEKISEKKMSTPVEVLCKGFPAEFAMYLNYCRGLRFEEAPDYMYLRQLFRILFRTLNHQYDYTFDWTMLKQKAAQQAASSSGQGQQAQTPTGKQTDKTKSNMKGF

GSK3A = GSK3A (Homo sapiens, UniProt P49840)
PIP5K1C = PIP5K1C (Homo sapiens, UniProt O60331)
PIP5K1C, sequence (O60331 whole entry): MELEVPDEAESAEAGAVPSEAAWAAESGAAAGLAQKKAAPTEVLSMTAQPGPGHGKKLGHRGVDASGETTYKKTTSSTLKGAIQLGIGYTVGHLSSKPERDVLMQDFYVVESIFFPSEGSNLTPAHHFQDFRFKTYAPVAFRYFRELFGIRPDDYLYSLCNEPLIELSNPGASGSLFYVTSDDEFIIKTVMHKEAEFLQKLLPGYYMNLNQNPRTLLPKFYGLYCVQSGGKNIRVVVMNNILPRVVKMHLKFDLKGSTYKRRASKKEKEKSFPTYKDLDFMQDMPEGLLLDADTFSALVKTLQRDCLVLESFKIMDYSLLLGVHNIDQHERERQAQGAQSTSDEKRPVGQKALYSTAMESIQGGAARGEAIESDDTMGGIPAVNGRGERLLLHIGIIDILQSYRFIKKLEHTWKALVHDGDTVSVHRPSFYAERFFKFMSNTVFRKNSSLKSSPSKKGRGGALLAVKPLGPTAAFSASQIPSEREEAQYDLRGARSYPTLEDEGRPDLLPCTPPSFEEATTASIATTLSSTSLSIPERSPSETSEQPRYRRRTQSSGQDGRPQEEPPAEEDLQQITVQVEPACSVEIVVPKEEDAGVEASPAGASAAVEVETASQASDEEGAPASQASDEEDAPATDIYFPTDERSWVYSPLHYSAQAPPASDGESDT

GRK3 = GRK3 (Homo sapiens, UniProt P35626)
ZAK = molecular target: T8, ZAK (Homo sapiens, UniProt Q9NYL2)
T8 construct: gene MAP3K20

RIOK1 = RIOK1 (Homo sapiens, UniProt Q9BRS2)
ERK8 = molecular target: T9, ERK8 (Homo sapiens, UniProt Q8TD08)
T9 construct: gene MAPK15
T9 sequence (Q8TD08 whole entry): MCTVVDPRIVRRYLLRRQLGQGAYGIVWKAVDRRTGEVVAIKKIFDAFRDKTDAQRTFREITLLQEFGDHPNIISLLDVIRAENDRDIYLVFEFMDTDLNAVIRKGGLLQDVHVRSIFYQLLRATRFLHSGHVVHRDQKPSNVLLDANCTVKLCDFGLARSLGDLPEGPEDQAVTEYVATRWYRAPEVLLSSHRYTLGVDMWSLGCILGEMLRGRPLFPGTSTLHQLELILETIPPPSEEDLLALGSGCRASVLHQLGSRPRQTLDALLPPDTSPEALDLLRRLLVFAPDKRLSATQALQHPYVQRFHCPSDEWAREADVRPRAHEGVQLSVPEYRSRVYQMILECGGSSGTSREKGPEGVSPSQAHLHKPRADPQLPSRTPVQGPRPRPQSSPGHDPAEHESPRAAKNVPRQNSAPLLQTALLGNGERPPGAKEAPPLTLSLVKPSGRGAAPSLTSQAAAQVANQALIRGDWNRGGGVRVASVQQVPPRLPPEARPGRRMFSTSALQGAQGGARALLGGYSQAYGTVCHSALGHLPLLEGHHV

[3] = molecular target: T10, RSK2(Kin.Dom.2-C-terminal) (Homo sapiens, UniProt P51812)
T10 construct: gene RPS6KA3; Kin.Dom.2-C-terminal

TNK1 = TNK1 (Homo sapiens, UniProt Q13470)
MAP4K3 = MAP4K3 (Homo sapiens, UniProt Q8IVH8)
p38-beta = molecular target: T11, p38-beta (Homo sapiens, UniProt Q15759)
T11 construct: gene MAPK11

ACVR1 = ACVR1 (Homo sapiens, UniProt Q04771)

With `Cc1ccc(NC(=O)c2cccc(C(F)(F)F)c2)cc1Nc1cc(-c2cccnc2)nc2[nH]ccc12` [HZX-02-059] the remaining binding at 1 µM (DMPK2) was 99%, the remaining binding at 1 µM (INSRR) was 100% and the remaining binding at 1 µM (MINK) was 91%. The remaining binding at 1 µM [1] was 100%, the remaining binding at 1 µM (AXL) was 90% and the remaining binding at 1 µM (IKK-epsilon) was 70%. It also gave a remaining binding at 1 µM (FGR) of 92%, a remaining binding at 1 µM (PIK3CA(E542K)) of 56% and a remaining binding at 1 µM [2] of 55%. For the same molecule, the remaining binding at 1 µM (ADCK3) was 97%, the remaining binding at 1 µM (DCAMKL3) was 81% and the remaining binding at 1 µM (BLK) was 91%. It also gave a remaining binding at 1 µM (CSNK1A1) of 77%, a remaining binding at 1 µM (GSK3A) of 98% and a remaining binding at 1 µM (PIP5K1C) of 73%. It also gave a remaining binding at 1 µM (GRK3) of 98%, a remaining binding at 1 µM (ZAK) of 17% and a remaining binding at 1 µM (RIOK1) of 98%. For the same molecule, the remaining binding at 1 µM (ERK8) was 92%, the remaining binding at 1 µM [3] was 100% and the remaining binding at 1 µM (TNK1) was 91%. For the same molecule, the remaining binding at 1 µM (MAP4K3) was 97%, the remaining binding at 1 µM (p38-beta) was 64% and the remaining binding at 1 µM (ACVR1) was 77%.
